ChEMBL document CHEMBL1201862, “PubChem BioAssay data set” (2004)
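Cultured in 96-well plates, cells were exposed to test compound for 48 hours across five concentrations. Here, GI50 denotes the concentration required for 50% inhibition of growth.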 Calls of active or inactive are those of the source. No stated cut-off is given here; in the data, active = GI50 up to about 1.1 µM and inactive = higher.

Tests used:
Experiment in all cases: inhibition of tumour cell growth, NCI panel, 48 h
[1] = tested on: 786-0
[2] = tested on: A498
[3] = tested on: A549
[4] = tested on: ACHN
[5] = tested on: BT-549
[6] = tested on: CAKI-1
[7] = tested on: COLO 205
[8] = tested on: DU-145
[9] = tested on: EKVX
[10] = tested on: HCC 2998
[11] = tested on: HCT-116
[12] = tested on: HCT-15
[13] = tested on: HOP-62
[14] = tested on: HOP-92
[15] = tested on: HT-29
[16] = tested on: Hs-578T
[17] = tested on: IGROV-1
[18] = tested on: K562
[19] = tested on: KM12
[20] = tested on: M14
[21] = tested on: MCF7
[22] = tested on: MDA-MB-231
[23] = tested on: MDA-MB-435
[24] = tested on: MDA-N
[25] = tested on: MOLT-4
[26] = tested on: Malme-3M
[27] = tested on: NCI-H23
[28] = tested on: NCI-H460
[29] = tested on: NCI-H522
[30] = tested on: NCI/ADR-RES
[31] = tested on: OVCAR-3
[32] = tested on: OVCAR-4
[33] = tested on: OVCAR-5
[34] = tested on: OVCAR-8
[35] = tested on: PC-3
[36] = tested on: RPMI-8226
[37] = tested on: RXF 393
[38] = tested on: SF-268
[39] = tested on: SF-295
[40] = tested on: SK-MEL-28
[41] = tested on: SK-MEL-2
[42] = tested on: SK-MEL-5
[43] = tested on: SK-OV-3
[44] = tested on: SNB-19
[45] = tested on: SNB-75
[46] = tested on: TK-10
[47] = tested on: U-251
[48] = tested on: UACC-257
[49] = tested on: UACC-62
[50] = tested on: UO-31
[51] = tested on: CCRF-CEM
[52] = tested on: HL-60
[53] = tested on: LOX IMVI
[54] = tested on: NCI-H226
[55] = tested on: SF-539
[56] = tested on: SN12C
[57] = tested on: SR
[58] = tested on: SW-620
[59] = tested on: T47D

Measured: GI50

CCOP(=O)(Nc1ccc(-c2ccccc2)cc1)OCC
inactive: [1] > 100 µM | [2] > 100 µM | [3] 81.5 µM | [4] > 100 µM | [5] > 100 µM | [6] > 100 µM | [7] > 100 µM | [8] > 100 µM | [9] 65 µM | [10] > 100 µM | [11] > 100 µM | [13] > 100 µM | [14] 24.8 µM | [15] 75.7 µM | [16] > 100 µM | [17] 71.3 µM | [18] 74.1 µM | [19] > 100 µM | [20] > 100 µM | [21] > 100 µM | [22] > 100 µM | [23] 91.6 µM | [24] 88.9 µM | [25] 36.4 µM | [26] > 100 µM | [27] > 100 µM | [28] > 100 µM | [29] 33.8 µM | [30] > 100 µM | [31] 49.9 µM | [32] 96.4 µM | [33] 77.8 µM | [34] > 100 µM | [35] 86.5 µM | [36] 43.3 µM | [37] 34.6 µM | [38] 74.6 µM | [39] > 100 µM | [40] > 100 µM | [41] > 100 µM | [42] 90.2 µM | [43] > 100 µM | [44] > 100 µM | [45] 74.3 µM | [46] > 100 µM | [47] > 100 µM | [48] > 100 µM | [49] > 100 µM | [50] 57.9 µM
> 100 µM: [12]

Cn1c(=O)oc2cc(C(=S)N3CCC(Cc4ccccc4)CC3)ccc21
inactive: [1] > 100 µM | [2] > 100 µM | [4] > 100 µM | [5] > 100 µM | [6] > 100 µM | [51] > 100 µM | [7] > 100 µM | [8] > 100 µM | [9] > 100 µM | [11] > 100 µM | [52] > 100 µM | [13] > 100 µM | [15] > 100 µM | [16] > 100 µM | [17] > 100 µM | [18] 61.7 µM | [19] > 100 µM | [53] > 100 µM | [20] > 100 µM | [21] > 100 µM | [22] > 100 µM | [23] 91.8 µM | [24] > 100 µM | [25] 48.1 µM | [26] > 100 µM | [54] > 100 µM | [27] > 100 µM | [28] > 100 µM | [30] > 100 µM | [31] > 100 µM | [33] > 100 µM | [34] > 100 µM | [35] > 100 µM | [36] 62.1 µM | [37] > 100 µM | [38] > 100 µM | [39] > 100 µM | [55] > 100 µM | [40] > 100 µM | [41] > 100 µM | [42] 51.4 µM | [43] > 100 µM | [56] > 100 µM | [44] > 100 µM | [45] 55.6 µM | [57] 72.3 µM | [58] > 100 µM | [46] > 100 µM | [47] 64.7 µM | [48] > 100 µM | [49] > 100 µM
> 100 µM: [12]

Cc1nnc(N)nc1/C=C\c1ccc(N(C)C)cc1
2.99 µM: [12]
inactive: [1] > 26.7 µM | [2] 16.6 µM | [3] 9.79 µM | [4] 15 µM | [5] > 20.9 µM | [51] 10.3 µM | [7] > 29.7 µM | [8] > 66.2 µM | [9] 29.6 µM | [10] 3.78 µM | [11] 10.8 µM | [52] 3.32 µM | [13] 38.5 µM | [15] 8.83 µM | [16] 5.82 µM | [17] 37.5 µM | [18] 86.9 µM | [19] 12.3 µM | [53] 4.88 µM | [20] 27 µM | [21] 3.85 µM | [23] 6.27 µM | [24] 17.4 µM | [25] 17.6 µM | [26] 29.2 µM | [54] 16.1 µM | [27] 7.01 µM | [28] 9.66 µM | [29] 1.68 µM | [30] 12.4 µM | [32] 26.5 µM | [33] > 86.3 µM | [34] 22.9 µM | [35] 30.7 µM | [36] 9.86 µM | [37] > 40.1 µM | [38] > 34.2 µM | [39] > 41.2 µM | [40] > 45.9 µM | [41] 39.8 µM | [42] 18.5 µM | [43] > 29.4 µM | [56] > 100 µM | [44] 15.2 µM | [45] 2.67 µM | [57] 6.24 µM | [58] > 64.6 µM | [59] > 24.6 µM | [46] > 37.6 µM | [47] > 27.1 µM | [48] 22.5 µM | [49] 4.27 µM | [50] 3.18 µM
